Reference: ChEMBL document CHEMBL5385977, “Small molecules modulating RNA splicing: a review of targets and future perspectives” (RSC Med Chem, 2024)
Each block holds one compound with its values, some of them ahead of it.

Key:
[1] = molecular target: Vascular endothelial growth factor receptor 2 (Homo sapiens, UniProt P35968); experiment: Inhibition of human VEGFR2 (unknown origin) incubated for 1 hrs in presence of ATP by ELISA assay
Splicing factor 45 = molecular target: T1, Splicing factor 45 (Homo sapiens, UniProt Q96I25); experiment: Inhibition of His-tagged SPF45-UHM (unknown origin) (301 to 401 residues) expressed in Escherichia coli BL21 (DE3) cells by using biotinylated-RKSRWDETP as substrate preincubated for 30 mins followed by substrate addition and measured after 1 hr by AlphaScreen assay
T1 sequence (Q96I25 whole entry): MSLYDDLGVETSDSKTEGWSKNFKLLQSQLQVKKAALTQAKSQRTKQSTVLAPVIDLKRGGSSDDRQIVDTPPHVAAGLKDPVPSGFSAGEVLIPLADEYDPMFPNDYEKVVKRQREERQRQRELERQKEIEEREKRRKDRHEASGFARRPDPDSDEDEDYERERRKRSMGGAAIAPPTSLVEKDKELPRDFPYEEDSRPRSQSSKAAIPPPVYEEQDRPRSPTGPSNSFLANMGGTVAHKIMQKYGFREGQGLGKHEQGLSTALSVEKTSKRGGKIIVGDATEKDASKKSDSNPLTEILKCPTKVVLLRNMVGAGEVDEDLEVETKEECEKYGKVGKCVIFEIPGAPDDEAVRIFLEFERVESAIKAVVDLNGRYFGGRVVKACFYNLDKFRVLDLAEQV

[2] = molecular target: Programmed cell death protein 1/Programmed cell death 1 ligand 1 (Homo sapiens, UniProt Q15116+Q9NZQ7); experiment: Inhibition of PD-1/PD-L1 interaction (unknown origin) incubated for 24 hrs by HTRF assay; assay type: protein-complex assay
Sequence of Programmed cell death protein 1/Programmed cell death 1 ligand 1 (Q15116 whole entry): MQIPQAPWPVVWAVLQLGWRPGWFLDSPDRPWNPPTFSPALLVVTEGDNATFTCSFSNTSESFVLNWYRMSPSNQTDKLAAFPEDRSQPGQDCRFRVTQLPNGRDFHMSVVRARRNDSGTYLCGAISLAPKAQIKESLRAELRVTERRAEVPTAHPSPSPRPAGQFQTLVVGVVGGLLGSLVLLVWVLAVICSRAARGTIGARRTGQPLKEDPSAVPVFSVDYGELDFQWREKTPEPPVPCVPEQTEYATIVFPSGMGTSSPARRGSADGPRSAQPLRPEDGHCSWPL
Sequence of Programmed cell death protein 1/Programmed cell death 1 ligand 1 (Q9NZQ7 whole entry): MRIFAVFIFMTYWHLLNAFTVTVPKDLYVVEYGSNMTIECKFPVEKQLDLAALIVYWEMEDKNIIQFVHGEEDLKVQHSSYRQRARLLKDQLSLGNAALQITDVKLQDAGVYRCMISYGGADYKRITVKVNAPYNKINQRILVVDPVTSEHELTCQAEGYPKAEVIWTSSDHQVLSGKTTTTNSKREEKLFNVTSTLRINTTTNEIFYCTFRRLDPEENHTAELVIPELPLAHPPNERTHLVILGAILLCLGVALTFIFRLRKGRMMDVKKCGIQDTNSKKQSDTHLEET

[3] = Inhibition of N-terminal His-tagged U2AF35-UHM (unknown origin) expressed in Escherichia coli Rosetta cells (DE3) incubated for 1 hr by HTRF method; parameters: species or system Homo sapiens

Sequence of Vascular endothelial growth factor receptor 2 (P35968 whole entry, the tested form may be a part): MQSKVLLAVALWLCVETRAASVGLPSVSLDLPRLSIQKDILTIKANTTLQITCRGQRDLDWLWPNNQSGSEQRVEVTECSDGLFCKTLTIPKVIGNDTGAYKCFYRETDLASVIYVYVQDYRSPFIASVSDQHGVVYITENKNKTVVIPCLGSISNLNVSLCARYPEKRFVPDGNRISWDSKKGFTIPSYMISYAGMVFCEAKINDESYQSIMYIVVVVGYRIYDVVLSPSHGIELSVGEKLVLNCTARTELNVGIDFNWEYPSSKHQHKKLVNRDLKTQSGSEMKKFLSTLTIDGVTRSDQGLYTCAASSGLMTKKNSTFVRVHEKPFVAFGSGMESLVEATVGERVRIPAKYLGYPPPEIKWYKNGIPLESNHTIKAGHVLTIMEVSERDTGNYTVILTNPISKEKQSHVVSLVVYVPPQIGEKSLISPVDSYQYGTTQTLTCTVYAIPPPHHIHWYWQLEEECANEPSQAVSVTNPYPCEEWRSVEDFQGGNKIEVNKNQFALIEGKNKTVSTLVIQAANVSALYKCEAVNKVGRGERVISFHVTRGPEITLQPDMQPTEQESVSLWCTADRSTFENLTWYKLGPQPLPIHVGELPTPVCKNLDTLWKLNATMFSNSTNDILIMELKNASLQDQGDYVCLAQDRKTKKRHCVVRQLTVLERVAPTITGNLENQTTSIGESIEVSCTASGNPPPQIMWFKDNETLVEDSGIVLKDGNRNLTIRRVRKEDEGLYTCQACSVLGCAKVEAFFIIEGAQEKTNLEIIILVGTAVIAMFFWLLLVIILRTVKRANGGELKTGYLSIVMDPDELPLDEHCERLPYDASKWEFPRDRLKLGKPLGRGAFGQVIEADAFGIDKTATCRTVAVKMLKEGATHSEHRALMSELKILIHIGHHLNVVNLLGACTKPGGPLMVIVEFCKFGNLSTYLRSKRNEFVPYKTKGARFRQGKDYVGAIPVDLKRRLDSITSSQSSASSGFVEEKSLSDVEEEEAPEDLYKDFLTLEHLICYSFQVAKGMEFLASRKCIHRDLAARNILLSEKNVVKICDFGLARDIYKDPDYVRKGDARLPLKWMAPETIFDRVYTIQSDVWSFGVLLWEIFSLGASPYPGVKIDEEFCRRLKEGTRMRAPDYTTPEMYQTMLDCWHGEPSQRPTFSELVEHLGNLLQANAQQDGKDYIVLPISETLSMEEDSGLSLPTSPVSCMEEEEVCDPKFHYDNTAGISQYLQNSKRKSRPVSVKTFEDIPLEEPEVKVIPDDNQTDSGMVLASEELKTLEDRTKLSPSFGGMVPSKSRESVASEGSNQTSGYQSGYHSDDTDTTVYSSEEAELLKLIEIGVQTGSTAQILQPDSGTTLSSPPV

IC50 [1]: 0.96 µM
Compound: O=C(Nc1cc(C(F)(F)F)ccc1N1CCCCC1)c1ccncc1

IC50 (Splicing factor 45): 10.4 µM
Compound: COc1cc2c(cc1OC)N(CCCN1CCN(CCO)CC1)c1cc(Cl)ccc1S2
IC50 [2]: 9.2 µM

Compound: CC(CCc1c[nH]c2ccccc12)N1C[C@H]2CC[C@@H](C1)C2N (some centres undefined)
IC50 [3]: 74.9 µM
